Test system: double transgenic rats over-expressing both, the gene for human renin and the gene for human angiotensinogen
Experiment: Urinary albumin excretion (albuminuria) in double transgenic rat model of malignant hypertension with renal complications
Format: in vivo
From the text: An animal model for spontaneously malignant hypertension with renal complications is represented by double transgenic rats over-expressing both, the gene for human renin and the gene for human angiotensinogen. This double transgenic rat strain is produced by crossbreeding two transgenic strains, one for human angiotensinogen with the endogenous promoter and one for human renin with the endogenous promoter. Neither single transgenic strain is hypertensive. […] The fact that human renin can be studied in the rat is a unique feature of this model and allows the extrapolation to clinical high renin hypertension. […] Each agent can be tested over a wide range of dosages to determine the optimal drug level for each agent in combination to elicit the maximal response. Each study group is best performed in which the effects of the combination treatment group are determined at the same time as the individual components are evaluated. Although drug effects may be observed upon short term treatment, it is preferable to observe responses in a chronic setting as shown below in which experiments were done over a three to seven week observation period. The long-term duration study is of sufficient duration to allow for the full development of compensatory responses to occur and therefore, the observed effect will most likely depict the actual responses of the test system representing sustained or persistent effects. The combination therapy can be compared to that of the respective monotherapies by determining the maximum change in 24 hour urinary protein content at a given day. All values are represented as the group mean±standard error of the mean (SEM). Statistical significance is obtained when p<0.05. The albuminuria values for each of the treatment groups can be compared statistically using a one-way ANOVA followed by the appropriate post-hoc analysis, for example by performing a Bonferoni test. Four week old double transgenic rats were treated daily by oral gavage with SPP100/aliskiren at a dose of 10 mg/kg, SPP301/avosentan at doses of 10 and 30 mg/kg and combinations of SPP100/aliskiren with SPP301/avosentan at the same doses. After three, five and seven weeks of drug treatment, 24 hour urine samples are collected using metabolic cages. The urinary albumin content is measured by ELISA using a commercial kit ([…] GmbH, Luckenwalde, Germany).

Row | SMILES | Albuminuria: mean ± SEM (SPP100 10 mg/kg daily oral gavage, Baseline, 24 h urine, ELISA) | Albuminuria: mean ± SEM (SPP100 10 mg/kg daily oral gavage, treatment week 3) | Albuminuria: mean ± SEM (SPP100 10 mg/kg daily oral gavage, treatment week 5) | Albuminuria: mean ± SEM (SPP100 10 mg/kg daily oral gavage, treatment week 7) | mean urinary albumin excretions (SPP100/aliskiren 10 mg/kg daily oral, after seven weeks of treatment) | Albuminuria: mean ± SEM (SPP301 10 mg/kg daily oral gavage, Baseline) | Albuminuria: mean ± SEM (SPP301 10 mg/kg daily oral gavage, treatment week 3) | Albuminuria: mean ± SEM (SPP301 10 mg/kg daily oral gavage, treatment week 5) | Albuminuria: mean ± SEM (SPP301 10 mg/kg daily oral gavage, treatment week 7) | Albuminuria: mean ± SEM (SPP301 30 mg/kg daily oral gavage, Baseline) | Albuminuria: mean ± SEM (SPP301 30 mg/kg daily oral gavage, treatment week 3) | Albuminuria: mean ± SEM (SPP301 30 mg/kg daily oral gavage, treatment week 5) | Albuminuria: mean ± SEM (SPP301 30 mg/kg daily oral gavage, treatment week 7) | urinary albumin contents (SPP301/avosentan at 10 or 30 mg/kg daily dosing)
1 | COCCCOc1cc(C[C@@H](C[C@H](N)[C@@H](O)C[C@H](C(=O)NCC(C)(C)C(N)=O)C(C)C)C(C)C)ccc1OC [SPP100, aliskiren] | 469 ± 64 ug/24 h | 3046 ± 734 ug/24 h | 12356 ± 3194 ug/24 h | 22268 ± 5067 ug/24 h | up to 22.3 mg |  |  |  |  |  |  |  |  | 
2 | COc1ccccc1Oc1c(NS(=O)(=O)c2ccc(C)cn2)nc(-c2ccncc2)nc1OC [SPP301, 5-methyl-pyridine-2-sulfonic acid [6-methoxy-5-(2-methoxy-phenoxy)-2-pyridin-4-yl-pyrimidin-4-yl]-amide] |  |  |  |  |  | 422 ± 128 ug/24 h | 14213 ± 4658 ug/24 h | 38936 ± 7988 ug/24 h | 38980 ± 9642 ug/24 h | 413 ± 151 ug/24 h | 11824 ± 2343 ug/24 h | 43160 ± 10250 ug/24 h | 37416 ± 16057 ug/24 h | ≤ 39 mg

— patent publication US20100173919A1, “PHARMACEUTICAL COMPOSITION USING ALISKIREN AND AVOSENTAN” (priority 2006, published 2010)
